pIC50: −log10 of the molar value. Several values for one entry are separate records, joined by “and”; a condition that tells them apart may be missing. Equal entries are not always repeated.
Tests used:
D(4) dopamine receptor = target: T1, D(4) dopamine receptor (Homo sapiens, UniProt P21917); assay: biochemical
T1 sequence (P21917 whole entry): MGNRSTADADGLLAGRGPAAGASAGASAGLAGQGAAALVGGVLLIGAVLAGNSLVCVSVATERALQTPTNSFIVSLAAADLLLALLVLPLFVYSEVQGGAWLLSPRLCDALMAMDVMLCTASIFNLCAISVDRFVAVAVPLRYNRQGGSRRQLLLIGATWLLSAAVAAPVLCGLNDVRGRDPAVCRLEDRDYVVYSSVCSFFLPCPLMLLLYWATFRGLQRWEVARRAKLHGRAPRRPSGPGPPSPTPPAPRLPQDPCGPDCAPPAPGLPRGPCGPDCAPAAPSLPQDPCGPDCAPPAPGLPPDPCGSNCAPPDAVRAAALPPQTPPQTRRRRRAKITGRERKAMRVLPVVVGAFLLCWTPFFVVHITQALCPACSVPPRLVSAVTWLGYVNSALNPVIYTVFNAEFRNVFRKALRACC
Description: Binding affinity to cloned human Dopamine receptor D4 expressed in CHO cells using [3H]spiperone

D(3) dopamine receptor [1] = target: T2, D(3) dopamine receptor (Homo sapiens, UniProt P35462); assay: biochemical
Description: Binding affinity to cloned human Dopamine receptor D3 expressed in CHO cells by [3H]spiperone displacement.

D(2) dopamine receptor [2] = target: T3, D(2) dopamine receptor (Homo sapiens, UniProt P14416); assay: biochemical
Description: Binding affinity to cloned human Dopamine receptor D2 expressed in A9L cells by [3H]spiperone displacement.

[3] = target: T4, 5-hydroxytryptamine receptor 1A (Rattus norvegicus, UniProt P19327); assay: biochemical
T4 sequence (P19327 whole entry): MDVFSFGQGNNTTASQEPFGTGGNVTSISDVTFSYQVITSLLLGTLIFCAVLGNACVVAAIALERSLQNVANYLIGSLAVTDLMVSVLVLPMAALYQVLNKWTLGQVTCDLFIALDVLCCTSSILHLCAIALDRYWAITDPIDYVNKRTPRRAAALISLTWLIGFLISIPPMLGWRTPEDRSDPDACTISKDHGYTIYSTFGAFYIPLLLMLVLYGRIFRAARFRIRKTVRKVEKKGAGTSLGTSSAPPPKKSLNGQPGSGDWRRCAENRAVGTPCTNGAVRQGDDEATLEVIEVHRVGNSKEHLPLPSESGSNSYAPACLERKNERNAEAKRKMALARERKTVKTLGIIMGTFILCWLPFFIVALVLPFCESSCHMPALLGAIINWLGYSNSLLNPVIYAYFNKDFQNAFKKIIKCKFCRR
Description: Binding affinity to 5-HT1A receptor in rat hippocampus by [3H]8-OH-DPAT displacement.

D(3) dopamine receptor [4] = target: T2, D(3) dopamine receptor; assay: Binding affinity to cloned human Dopamine receptor D3 expressed in CHO cells using [3H]spiperone at 100 nM concentration; assay type: cell-based
[5] = target: T5, D(4) dopamine receptor (Homo sapiens) (UniProt P21917); assay: Binding affinity to cloned human dopamine receptor D4 expressed in CHO cells using [3H]spiperone at 100 nM concentration; assay type: cell-based
T5 sequence (whole entry): T1 sequence (P21917 whole entry)

D(2) dopamine receptor [6] = target: T3, D(2) dopamine receptor; assay: Binding affinity to cloned human Dopamine receptor D2 expressed in A9L cells using [3H]spiperone at 100 nM concentration; assay type: cell-based

T2 sequence (P35462 whole entry): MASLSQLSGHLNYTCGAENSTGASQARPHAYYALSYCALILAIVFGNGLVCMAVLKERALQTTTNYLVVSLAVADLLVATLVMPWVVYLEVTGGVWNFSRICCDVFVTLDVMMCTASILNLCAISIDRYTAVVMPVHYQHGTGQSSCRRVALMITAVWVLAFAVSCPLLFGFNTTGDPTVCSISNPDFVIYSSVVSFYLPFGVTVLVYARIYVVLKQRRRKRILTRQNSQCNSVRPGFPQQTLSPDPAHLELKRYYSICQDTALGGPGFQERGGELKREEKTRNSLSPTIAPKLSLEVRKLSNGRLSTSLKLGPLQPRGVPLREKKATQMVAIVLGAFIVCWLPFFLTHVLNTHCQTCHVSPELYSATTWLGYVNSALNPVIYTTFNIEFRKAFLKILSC
T3 sequence (P14416 whole entry): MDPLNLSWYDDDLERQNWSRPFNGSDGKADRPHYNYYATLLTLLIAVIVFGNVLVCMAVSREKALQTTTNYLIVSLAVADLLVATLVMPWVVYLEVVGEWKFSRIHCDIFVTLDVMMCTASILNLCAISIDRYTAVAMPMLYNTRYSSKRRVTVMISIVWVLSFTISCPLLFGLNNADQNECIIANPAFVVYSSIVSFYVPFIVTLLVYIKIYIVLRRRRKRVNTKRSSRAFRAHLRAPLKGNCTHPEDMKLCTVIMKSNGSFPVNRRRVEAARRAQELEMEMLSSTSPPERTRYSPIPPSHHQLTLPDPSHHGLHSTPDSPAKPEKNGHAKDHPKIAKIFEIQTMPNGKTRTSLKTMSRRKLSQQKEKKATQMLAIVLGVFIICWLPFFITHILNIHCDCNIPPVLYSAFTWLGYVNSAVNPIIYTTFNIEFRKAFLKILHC

Fc1ccccc1-c1cccc(CN2CCN(c3ncccn3)CC2)c1
pIC50 (D(4) dopamine receptor): 8.10
pIC50 (D(3) dopamine receptor [1]): 6.49
pIC50 (D(2) dopamine receptor [2]): 6.60
pIC50 [3]: 6.05

c1cnc(N2CCN(Cc3cccc4c3Cc3ccccc3-4)CC2)nc1
pIC50 (D(4) dopamine receptor): 7.70
pIC50 (D(3) dopamine receptor [1]): 5.25
pIC50 (D(2) dopamine receptor [2]): 5.01
pIC50 [3]: < 5.00

Fc1cccc(-c2cccc(CN3CCN(c4ncccn4)CC3)c2)c1
pIC50 (D(4) dopamine receptor): 8.40 and 8.05
pIC50 (D(3) dopamine receptor [1]): 6.70
pIC50 (D(2) dopamine receptor [2]): 7.09
pIC50 [3]: 6.52

Fc1ccc(-c2cccc(CN3CCN(c4ncccn4)CC3)c2)cc1
pIC50 (D(4) dopamine receptor): 8.70 and 8.15
pIC50 (D(3) dopamine receptor [1]): 7.23
pIC50 (D(2) dopamine receptor [2]): 7.31
pIC50 [3]: 6.15

CC(C)Oc1cccnc1N(C)C1CCN(Cc2ccccc2)CC1
pIC50 (D(4) dopamine receptor): 8.30 and 8.10
pIC50 (D(3) dopamine receptor [1]): 5.26
pIC50 (D(2) dopamine receptor [2]): 6.21
pIC50 [3]: < 6.00

Fc1ccc(-c2cncc(CN3CCN(c4ccccc4)CC3)c2)cc1
pIC50 (D(4) dopamine receptor): 8.22
pIC50 (D(3) dopamine receptor [1]): 7.48
pIC50 (D(2) dopamine receptor [2]): 7.64
pIC50 [3]: 7.15

c1cnc(N2CCN(Cc3ccc4c(c3)Cc3ccccc3-4)CC2)nc1
inhibition (D(3) dopamine receptor [4]): 91%
inhibition [5]: 87%
inhibition (D(2) dopamine receptor [6]): 89%
pIC50 [3]: < 7.00

Fc1ccc(-c2cncc(CN3CCN(c4cnccn4)CC3)c2)cc1
pIC50 (D(4) dopamine receptor): 7.60
pIC50 (D(3) dopamine receptor [1]): 6.32
pIC50 (D(2) dopamine receptor [2]): 6.35
pIC50 [3]: 6.40

Fc1ccc(-c2cncc(CN3CCN(c4ccccc4F)CC3)c2)cc1
pIC50 (D(4) dopamine receptor): 8.52 and 8.15
pIC50 (D(3) dopamine receptor [1]): 8.10
pIC50 (D(2) dopamine receptor [2]): 7.60
pIC50 [3]: 7.70

COc1cccc(-c2cccc(CN3CCN(c4ncccn4)CC3)c2)c1
pIC50 (D(4) dopamine receptor): 7.77
pIC50 (D(3) dopamine receptor [1]): 5.96
pIC50 (D(2) dopamine receptor [2]): 6.31
pIC50 [3]: 6.15

COc1ccc(-c2cccc(CN3CCN(c4ncccn4)CC3)c2)cc1
pIC50 (D(4) dopamine receptor): 7.24
pIC50 (D(3) dopamine receptor [1]): 7.14
pIC50 (D(2) dopamine receptor [2]): 7.30
pIC50 [3]: 5.70

c1cnc(N2CCN(CC3c4ccccc4-c4ccccc43)CC2)nc1
inhibition (D(3) dopamine receptor [4]): 95%
inhibition [5]: 99%
inhibition (D(2) dopamine receptor [6]): 100%
pIC50 [3]: < 7.00

c1cnc(N2CCN(Cc3cccc4c3sc3ccccc34)CC2)nc1
inhibition (D(3) dopamine receptor [4]): 101%
inhibition [5]: 87%
inhibition (D(2) dopamine receptor [6]): 97%
pIC50 [3]: < 7.00

Fc1ccc(-c2cncc(CN3CCN(c4ccccn4)CC3)c2)cc1
pIC50 (D(4) dopamine receptor): 8.15
pIC50 (D(3) dopamine receptor [1]): 6.52
pIC50 (D(2) dopamine receptor [2]): 7.22
pIC50 [3]: 8.00

c1cnc(N2CCN(Cc3cccc(-c4ccsc4)c3)CC2)nc1
pIC50 (D(4) dopamine receptor): 8.52 and 8.22
pIC50 (D(3) dopamine receptor [1]): 6.70
pIC50 (D(2) dopamine receptor [2]): 6.52
pIC50 [3]: 6.22

Fc1ccc(-c2cncc(CN3CCN(c4ncccn4)CC3)c2)cc1
pIC50 (D(4) dopamine receptor): 8.05 and 8.15
pIC50 (D(3) dopamine receptor [1]): 6.82
pIC50 (D(2) dopamine receptor [2]): 6.92
pIC50 [3]: 7.00

c1cnc(N2CCN(Cc3cccc4c3oc3ccccc34)CC2)nc1
inhibition (D(3) dopamine receptor [4]): 91%
pIC50 (D(4) dopamine receptor): 6.54
inhibition (D(2) dopamine receptor [6]): 94%
pIC50 [3]: < 7.00

COc1ccccc1-c1cccc(CN2CCN(c3ncccn3)CC2)c1
pIC50 (D(4) dopamine receptor): 7.80
pIC50 (D(3) dopamine receptor [1]): 6.15
pIC50 (D(2) dopamine receptor [2]): 6.44
pIC50 [3]: 6.52

Fc1ccc(-c2cncc(CN3CCN(c4ccc(F)cc4)CC3)c2)cc1
pIC50 (D(4) dopamine receptor): 8.10
pIC50 (D(3) dopamine receptor [1]): 6.70
pIC50 (D(2) dopamine receptor [2]): 7.15
pIC50 [3]: 6.40

c1cnc(N2CCN(Cc3cccc4c3-c3ccccc3C4)CC2)nc1
pIC50 (D(4) dopamine receptor): 5.32
pIC50 (D(3) dopamine receptor [1]): 5.40
pIC50 (D(2) dopamine receptor [2]): 5.64
pIC50 [3]: < 7.00
